Laboratory results: ChEMBL document CHEMBL3045424, “Synthesis and antimalarial activity evaluation of some isoquine analogues” (2011)

These compounds were tested on Plasmodium falciparum (assay: Antimalarial activity against chloroquine-sensitive Plasmodium falciparum 3D7 infected O positive human red blood cells assessed as dead rings and schizonts at 50 ug/ml after 40 hr by Giemsa staining).
Format: functional

Compound	Activity [%]
Oc1ccc(NCc2ccc(Nc3ccnc4cc(Cl)ccc34)cc2O)cc1	28.5
Oc1cc(Nc2ccnc3cc(Cl)ccc23)ccc1CNc1ccc(Br)cc1F	6.5
Oc1cc(Nc2ccnc3cc(Cl)ccc23)ccc1CNC1CCNCC1	33
OCCNCc1ccc(Nc2ccnc3cc(Cl)ccc23)cc1O	36.5
NC(=O)NCc1ccc(Nc2ccnc3cc(Cl)ccc23)cc1O	24
Oc1cc(Nc2ccnc3cc(Cl)ccc23)ccc1CNc1ccc(F)cc1	25.5
O=C(O)c1ccc(NCc2ccc(Nc3ccnc4cc(Cl)ccc34)cc2O)cc1	34

Each compound was assayed on Plasmodium falciparum (assay: Antimalarial activity against chloroquine-sensitive Plasmodium falciparum 3D7 infected O positive human red blood cells assessed as dead rings and schizonts at 0.4 ug/ml after 40 hr by Giemsa staining).
Format: functional

Compound	Activity [%]
CCN(CC)CCCC(C)Nc1ccnc2cc(Cl)ccc12 (stereo not drawn) [CHLOROQUINE]	68.5
